Experiments:
Experiment in all cases: AUC of viability dose-response curve (% viability x log10 dose units); higher = less sensitive
Conditions in all cases: 48 h
SEM cells = tested on: SEM cells
Summary of the method: (§1)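 Area under the curve was integrated by trapezoidal rule from a log-logistic fit of normalised viability, with curves exceeding full viability scaled and quality-control failures removed. The fit had four parameters over log10 doses. Viability came from CellTiter-Glo One luminescence, normalised per plate to DMSO and cell-free wells, after leukemia cells adapted to each medium (500 or 1000 cells/well, 1536-well plates) were exposed to library compounds in DMSO for 48 h at 37°C. The 11 threefold doses ran from 47 μM to 0.79 nM.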

NOMO1 = tested on: NOMO1
Summary of the method: as §1

P12-Ichikawa = tested on: P12-Ichikawa
Summary of the method: as §1

[1] = RPMI 5 mM glucose + 10% dialyzed FBS

Row | SMILES | AUC of viability dose-response curve (SEM cells; HPLM + 10% dialyzed FBS) | AUC of viability dose-response curve (SEM cells; RPMI 5 mM glucose + 10% FBS) | AUC of viability dose-response curve (SEM cells; [1]) | AUC of viability dose-response curve (NOMO1; HPLM + 10% dialyzed FBS) | AUC of viability dose-response curve (NOMO1; RPMI 5 mM glucose + 10% FBS) | AUC of viability dose-response curve (NOMO1; [1]) | AUC of viability dose-response curve (P12-Ichikawa; HPLM + 10% dialyzed FBS) | AUC of viability dose-response curve (P12-Ichikawa; RPMI 5 mM glucose + 10% FBS) | AUC of viability dose-response curve (P12-Ichikawa; [1])
1 | c1cc(OCCN2CCCCC2)cc(-c2n[nH]c3ccc(-c4nc[nH]n4)cc23)c1 | 412 | 441 | 413 | 467 | 463 | 468 |  |  | 
2 | CCCCc1oc2ccc(NS(C)(=O)=O)cc2c1C(=O)c1ccc(OCCCN(CCCC)CCCC)cc1 |  |  |  | 367 | 332 | 361 | 414 | 409 | 413
3 | COc1cc2ncnc(Nc3ccc(F)c(Cl)c3)c2cc1OCCCN1CCOCC1 | 408 | 419 | 425 | 425 | 452 | 443 | 446 | 446 | 463
4 | CC1(C)O[C@H]2CC(=O)OC[C@]23[C@H]2CC[C@@]4(C)[C@H](c5ccoc5)OC(=O)[C@H]5O[C@]54[C@]2(C)C(=O)C[C@@H]13 | 463 | 444 | 438 | 462 | 465 | 461 | 468 | 446 | 469
5 | O=C(C1CCCCC1)N1CC(=O)N2CCc3ccccc3C2C1 (stereo not drawn) | 434 | 407 | 406 | 445 | 466 | 452 | 386 | 385 | 369
6 | O=C(c1ccc(F)cc1)C1CCN(CCn2c(=O)[nH]c3ccccc3c2=O)CC1 | 469 | 474 | 466 | 469 | 457 | 453 | 455 | 448 | 451
7 | CN[C@@H](C)C(=O)N[C@H]1CCCC[C@H]2CC[C@@H](C(=O)N[C@@H](c3ccccc3)c3cn(CCCCc4ccc(CCCCn5cc([C@@H](NC(=O)[C@@H]6CC[C@@H]7CCCC[C@H](NC(=O)[C@H](C)NC)C(=O)N76)c6ccccc6)nn5)cc4)nn3)N2C1=O | 431 | 417 | 418 | 250 | 325 | 297 | 465 | 471 | 450
8 | O=C1c2cccc(O)c2C(=O)c2c(O)cc(CO)cc21 | 474 | 451 | 422 | 417 | 424 | 451 | 452 | 450 | 431
9 | Clc1ccc(COC(Cn2ccnc2)c2ccc(Cl)cc2Cl)cc1 (stereo not drawn) | 408 | 468 | 431 | 473 | 473 | 470 | 477 | 463 | 452
10 | C[C@@H]1CN(CC(=O)N2CC(C)(C)c3ncc(Cc4ccc(F)cc4)cc32)[C@@H](CN2CCOC[C@H]2C)CN1 | 448 | 402 | 465 | 442 | 456 | 459 | 463 | 449 | 477
11 | c1ccc2c(-c3cnn4cc(-c5ccc(N6CCNCC6)cc5)cnc34)ccnc2c1 | 355 | 379 | 394 |  |  |  |  |  | 
12 | N/C(=N\C(=O)c1nc(Cl)c(N)nc1N)NCc1ccccc1 | 449 | 407 | 436 | 448 | 405 | 447 | 465 | 449 | 436
13 | CN1C(=O)COc2c(C(=O)NC3CN4CCC3CC4)cc(Cl)cc21 (stereo not drawn) | 457 | 453 | 471 | 448 | 464 | 439 |  |  | 
14 | Cc1cnc(Nc2ccc(OCCN3CCCC3)cc2)nc1Nc1cccc([S+](=O)([O-])NC(C)(C)C)c1 | 427 | 458 | 447 | 477 | 470 | 473 | 469 | 471 | 468
15 | CC1(C)OC/2=C(\[C@H](NCC3=CC=CC=C3)[C@@H]1O)C(=O)C4=CC=CC=C4C2=O | 417 | 363 | 413 |  |  |  | 424 | 397 | 416
16 | Cn1c(=O)c2c(ncn2CC(O)CO)n(C)c1=O (stereo not drawn) | 440 | 469 | 421 | 470 | 462 | 455 | 435 | 449 | 460
17 | COc1cc(N2CCC(N3CCN(C)CC3)CC2)ccc1Nc1ncnc(Nc2ccccc2[S+](=O)([O-])C(C)C)n1 | 361 | 354 | 400 |  |  |  | 447 | 458 | 451
18 | NC\1=N\C(=O)N(\C=N1)[C@H]2C[C@H](O)[C@@H](CO)O2 | 362 | 327 | 309 | 375 | 402 | 417 | 382 | 368 | 378
19 | COc1ccc2cc(-c3[nH]c(-c4ccc([S+](C)[O-])cc4)nc3-c3ccncc3)ccc2c1 (stereo not drawn) | 451 | 463 | 460 | 461 | 390 | 435 | 472 | 468 | 464
20 | CC1=C2N=C([NH]C2=CC(=C1)N3CCOCC3)\C4=C(NC[C@@H](O)C5=CC=CC(=C5)Cl)\C=C/NC4=O |  |  |  | 385 | 411 | 378 | 469 | 469 | 465
21 | O=C1[O][Pt]2([NH]C3CCCCC3[NH]2)[O]C1=O (stereo not drawn) |  |  |  | 400 | 403 | 419 |  |  | 
22 | CC(C)[C@@H](N(CCCN)C(=O)C1=CC=C(C)C=C1)C/2=C(\CC3=CC=CC=C3)C(=O)C4=C(O2)C=C(Cl)C=C4 | 116 | 96.8 | 99.8 |  |  |  |  |  | 
23 | c1ccc(-c2nn3c(c2-c2ccnc4cc(OCCN5CCOCC5)ccc24)CCC3)nc1 | 458 | 468 | 472 | 450 | 467 | 471 | 438 | 420 | 448
24 | NC/1=N/C(=O)N(/C=C1)[C@H]2CC[C@@H](CO)O2 | 437 | 415 | 385 | 435 | 404 | 422 |  |  | 

Row | SMILES | AUC of viability dose-response curve (SEM cells; HPLM + 10% dialyzed FBS) | AUC of viability dose-response curve (SEM cells; RPMI 5 mM glucose + 10% FBS) | AUC of viability dose-response curve (SEM cells; [1]) | AUC of viability dose-response curve (NOMO1; HPLM + 10% dialyzed FBS) | AUC of viability dose-response curve (NOMO1; RPMI 5 mM glucose + 10% FBS) | AUC of viability dose-response curve (NOMO1; [1]) | AUC of viability dose-response curve (P12-Ichikawa; HPLM + 10% dialyzed FBS) | AUC of viability dose-response curve (P12-Ichikawa; RPMI 5 mM glucose + 10% FBS) | AUC of viability dose-response curve (P12-Ichikawa; [1])
25 | CC(C)(O)CNc1nc(Nc2ccnc(C(F)(F)F)c2)nc(-c2cccc(C(F)(F)F)n2)n1 | 408 | 363 | 382 | 442 | 409 | 418 | 371 | 369 | 381
26 | CCN(CC)CCOC1=CC=C(NC2=NC=C3\C=C(/C(=O)N(C)C3=N2)C4=C(Cl)C=CC=C4Cl)C=C1 |  |  |  | 343 | 359 | 355 | 371 | 365 | 367
27 | CNC(=O)c1cc(Oc2ccc(NC(=O)Nc3cc(C(C)(C)C)nn3-c3ccc4ncccc4c3)c(F)c2)ccn1 | 375 | 359 | 335 | 433 | 452 | 450 | 464 | 465 | 469
28 | CCOP(=O)(OCC)C(C)NC(=O)N(CCCl)N=O (stereo not drawn) | 470 | 447 | 461 | 441 | 402 | 466 | 431 | 453 | 436
29 | O=C(Oc1ccc([N+](=O)[O-])cc1)N1CCN(Cc2cccc(Oc3ccccc3)c2)CC1 | 433 | 453 | 468 | 469 | 460 | 451 | 468 | 475 | 457
30 | CC1=C(C)C2=C(S1)[N]3C(=NN=C3[C@H](CC(=O)OC(C)(C)C)/N=C2/C4=CC=C(Cl)C=C4)C | 249 | 264 | 251 | 292 | 286 | 296 | 311 | 313 | 305
31 | c1cc(-c2sc(-c3ccncc3)c(-c3ccncc3)c2-c2ccncc2)ccn1 | 377 | 350 | 365 | 472 | 439 | 464 | 472 | 466 | 471
32 | Cc1cc(SCc2sc(-c3ccc(C(F)(F)F)c(F)c3)nc2C)ccc1OCC(=O)O | 461 | 432 | 446 | 458 | 439 | 467 | 466 | 449 | 439
33 | CC1=CC2=C(O1)C(=C3OC(=O)\C=C(C)/C3=C2)C | 404 | 453 | 447 | 446 | 466 | 451 | 468 | 469 | 468
34 | OC1=C(C=CC=C1)C2=CC=C(C=C2)C3=CSC4=C3C(=C(/C#N)C(=O)N4)/O | 453 | 434 | 457 | 462 | 449 | 453 | 448 | 456 | 453
35 | COc1cc2c(NC3CCN(C(C)C)CC3)nc(C3CCCCC3)nc2cc1OCCCN1CCCC1 | 419 | 440 | 454 | 444 | 455 | 438 | 449 | 445 | 441
36 | Cn1cc(-c2ccncc2)c(-c2ccc(OCc3ccc4ccccc4n3)cc2)n1 | 469 | 445 | 465 | 454 | 451 | 463 | 449 | 433 | 440
37 | COc1cc(/C=C/C(=O)CC(=O)/C=C/c2ccc(O)c(OC)c2)ccc1O | 406 | 409 | 417 | 419 | 440 | 441 | 416 | 431 | 433
38 | CCC(CC)[C@H](NC(C)=O)[C@@H]1[C@H](O)[C@@H](C(=O)O)C[C@H]1NC(=N)N | 335 | 394 | 365 | 404 | 407 | 395 |  |  | 
39 | Cc1nc2c([nH]1)-c1ccccc1N(C(=O)c1ccc(NC(=O)c3ccccc3-c3ccccc3)cc1)CC2 | 451 | 457 | 449 | 470 | 444 | 468 | 466 | 467 | 471
40 | CC1(C)CC(=O)c2c(C(F)(F)F)nn(-c3ccc(C(N)=O)c(NC4CCC(OC(=O)CN)CC4)c3)c2C1 (stereo not drawn) | 288 | 290 | 276 | 292 | 273 | 281 | 346 | 297 | 308
41 | CN(C)[C@H]\1[C@@H]2[C@@H](O)[C@@H]\3C(=C)C4=C(C(=CC=C4)O)C(=O)C3=C(\O)[C@@]2(O)C(=O)\C(=C1O)C(N)=O | 452 | 463 | 466 | 449 | 462 | 474 | 465 | 468 | 472
42 | COc1ccc(Cn2ccc3ccc(C(=O)NO)cc32)cc1 | 464 | 460 | 462 | 446 | 461 | 469 |  |  | 
43 | CN1[C@@H]2CC(O)C[C@H]1[C@@H]1O[C@@H]12 (stereo partly drawn) |  |  |  | 451 | 453 | 451 | 455 | 448 | 454
44 | O=P(O)(O)C(O)(Cc1cccnc1)P(=O)(O)[O][Na] (stereo not drawn) | 411 | 409 | 406 |  |  |  |  |  | 
45 | CN(C(=O)c1ccc(F)cc1C(F)(F)F)C1CCN(c2nnc(-c3ccnn3C)c3ccccc23)CC1 | 331 | 373 | 326 |  |  |  | 387 | 365 | 355
46 | C=C1C[C@@]2(O)O[C@@]3(C[C@H]2C(C)C)[C@@H](C)CC[C@@H]13 |  |  |  | 466 | 451 | 465 | 469 | 460 | 449
47 | C[Se]CCC(N)C(=O)O (stereo not drawn) |  |  |  | 406 | 406 | 394 | 407 | 390 | 388
48 | Cc1ccccc1C(C(=O)NC1CCCCC1)N(C(=O)CNc1ccc(C#N)cc1)c1cccc(F)c1 (stereo not drawn) | 471 | 454 | 470 |  |  |  | 453 | 476 | 467

From the supplement of paper PMC11451515
